Results as given in paper PMC7481761 (Virologica Sinica, 2020).
Read-outs that look alike come from different tables or passages of the source. Marks after values point to notes of the source that are not given here.

What was measured:
SARS-CoV-2 [1] = test: microbe, parasite or virus in culture; format: cell-based; settings: for IC50: Severe acute respiratory syndrome coronavirus 2, Huh-7, 48 h
in vitro [2] = settings: human
in vitro [3] = settings: African green monkey
SARS-CoV-2 [4] = format: cell-based
SARS-CoV-2 [5] = format: cell-based; remark: listed apart in the source
SARS-CoV-2 [6] = test: Time-of-drug-addition assay in Vero E6 cells; format: cell-based
SARS-CoV-2 [7] = format: cell-based; settings: Vero E6 cells, CC50/IC50
Huh7 cells = settings: CCK-8 assay
Vero E6 cells = settings: read-out: CC50 (half cytotoxic concentration)
[8] = In vivo plasma exposure in humans; parameters: species or system human
[9] = plasma; ref Cvetkovic and Goa (2003); cited from earlier work

Row | Compound | selectivity index (SI) (SARS-CoV-2 [1]; Huh7 cells, CC50/IC50) | IC50 (SARS-CoV-2 [1]) [µM] | CC50 (in vitro [2]) [µM] | CC50 (in vitro [3]) [µM] | inhibitory effect by IFA (SARS-CoV-2 [4]) | NP expression by IFA (SARS-CoV-2 [5]) | stage of infection at which the compound acts (time-of-drug-addition) (SARS-CoV-2 [6]) | selectivity index (SI) (SARS-CoV-2 [7]) | CC50 (Huh7 cells) [µM] | CC50 (Vero E6 cells) [µM] | In vivo concentration Unbound Cmin [8] [µmol/L] | In vivo concentration Cmin [9]
1 | CCOC(=O)/C=C/[C@H](C[C@@H]1CCNC1=O)NC(=O)[C@@H](CC(=O)[C@@H](NC(=O)c1cc(C)on1)C(C)C)Cc1ccc(F)cc1 [Rupintrivir, rupintrivir] | > 3.94 | 25.4 | > 100 | > 100 | confirmed by IFA | confirmed by IFA | inhibit SARS-CoV-2 at the stages post virus infection | > 2.93 | – | – | – | –
2 | C#CC[C@@H](C(=O)N[C@H](/C=C/C(=O)OCC)C[C@@H]1CCNC1=O)n1cccc(NC(=O)c2cc(C)on2)c1=O [AG7404] | – | 92.5 | – | – | confirmed by IFA | confirmed by IFA | inhibit SARS-CoV-2 at the stages post virus infection | – | > 400 | > 400 | – | –
3 | Cc1cccc(C)c1OCC(=O)N[C@@H](Cc1ccccc1)[C@@H](O)C[C@H](Cc1ccccc1)NC(=O)[C@H](C(C)C)N1CCCNC1=O [Lopinavir, lopinavir] | – | 7.79 | – | 80.8 | IFA confirmed the inhibitory effect | decreased NP expression levels | inhibited SARS-CoV-2 infection after virus entry, but not during virus entry | – | 64.4 | – | – | –
4 | CC(C)c1nc(CN(C)C(=O)N[C@H](C(=O)N[C@@H](Cc2ccccc2)C[C@H](O)[C@H](Cc2ccccc2)NC(=O)OCc2cncs2)C(C)C)cs1 [Ritonavir, ritonavir] | – | 11.7 | – | – | IFA confirmed the inhibitory effect | decreased NP expression levels | inhibited SARS-CoV-2 infection after virus entry, but not during virus entry | – | – | – | 0.0006 | 0.038^e µmol/L
